From patent US9097673B2, “Processes and kits for determining multi-drug resistance of cells” (ENZO LIFE SCIENCES, INC., priority 2010, dated 2015)

Legend:
CHO K1 cell line = assay: Dye uptake flow cytometry MDR assay; assay type: cell-based, hamster; conditions: for D-values, Cyclosporin A / D-values, Novobiocin / D-values, Probenecid / D-values, Verapamil / MAF, Cyclosporin A / MAF, Novobiocin / MAF, Probenecid / MAF, Verapamil: Fluo-8 AM probe, dye uptake;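 as to all read-outs here: flow cytometry of dye-loaded cells, Kolmogorov-Smirnov D value (0 to 1.0) comparing fluorescence with versus without inhibitor, made negative when the uninhibited control was brighter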
Method: (§7) Concentrations of the modulators used in the experiments were non-toxic to the cells (based upon standard 3-(4,5-Dimethylthiazol-2-Yl)-2,5-Diphenyltetrazolium Bromide (MTT) testing, data not shown). Fluo-8™ was used in all experiments at 5 μM, and Rhod-4™—at 4 μM final concentrations.
(§8) Cells were grown on tissue culture dishes and on the day of assay were trypsinized and washed twice with warm (37° C.) phosphate-buffered saline (PBS). Post-wash, the cells were re-suspended in warm phenol red indicator-free medium at a density of 1×10^6/ml. For each detection set, sixteen tubes (5 samples in triplicates plus non-stained control for background fluorescence) in numbered tubes each containing 5×10^5/cells (0.5 ml) were prepared. […] After incubation for 5 min at 37° C., 0.25 ml of warm medium with Fluo-8™ AM probe (5 μM final concentration) or Rhod-4™ AM probe (2 μM final concentration) was added to each tube excluding non-stained control that receives plain medium and cells were incubated for 30 min at 37° C. and analyzed immediately by flow cytometry. In the second set of the tubes, the reaction was stopped by rapid centrifugation (1 min) at relatively low speed (200×g). After wash with ice-cold PBS and discarding the supernatant, cells were re-suspended in 0.5 ml of ice-cold medium and kept on ice until flow cytometry analysis. The third set of cells simply was spun down (1 min, 200×g) to remove the excess of the probe, resuspended in ice-cold medium and kept on ice until flow cytometry analysis.
(§9) Fluo-8™ dye fluorescence was measured in the FL1 channel, and Rhod-4™ dye fluorescence—in the FL2 channel.

A549 cell line [1] = assay: Dye uptake flow cytometry MDR assay; assay type: cell-based, human; conditions: A549, dye uptake
Method: as §7, §8, §9

A549 cell line [2] = assay: Dye efflux flow cytometry MDR assay; assay type: cell-based, human; set-up: key to D-value, Verapamil / D-value, Novobiocin: KS D value, 0 to 1; negative if control brighter than sample; conditions: for D-value, +4° C.: kept on ice without inhibitor
From the text: (§1) Kolmogorov-Smirnov statistics measures the difference between two distribution functions and generates a D value ranging between 0 and 1.0, with higher values indicating a greater difference between the distribution functions. The D value generated by the KS statistics was modified by ascribing a negative value if the fluorescence of a negative control (no inhibitor) was brighter than the fluorescence of the sample with inhibitor. The method was one of those recommended by the First International MDR1 Methods Detection Workshop (St. Jude Children's Research Hospital, Memphis, Tenn.).
(§2) Cells were grown in tissue culture dishes and on the day of assay they were trypsinized and washed twice with ice-cold PBS. Post-wash, the cells were re-suspended in cold phenol red indicator-free medium at a density of 1×10^6/ml. For each detection set, eighteen tubes (6 tubes without inhibitor and 3 tubes for each inhibitor tested, in triplicates) each containing 2.5-5×10^5/cells were prepared. Cells were centrifuged at 200×g for 5 min, and after discarding supernatant, re-suspended at 1×10^6/ml in ice-cold indicator-free medium containing Fluo-8™ AM or Rhod-4™ AM probes. Additionally, an aliquot of non-stained cells was prepared for background fluorescence measurements. Cells were incubated with the probe(s) on ice for 60 min, than centrifuged at 200×g for 5 min. After discarding the supernatant, cells were either washed twice with PBS or simply were spun down to remove the excess of the probe and resuspended at 5×10^5 cells/sample in 0.5 ml of following solutions:
(§3) 1. warm (37° C.) indicator-free medium containing vehicle only (3 tubes)
(§4) 2. warm (37° C.) indicator-free medium containing inhibitor (3 tubes for each inhibitor tested)
(§5) 3. ice-cold indicator-free medium (3 tubes)
(§6) Tube sets 1 and 2 were immediately transferred to a water bath (37° C.) and incubated for 90 min. Tube set 3 was kept on ice. Post incubation, 4 ml of ice-cold indicator-free medium was added per tube, tubes were centrifuged at 200×g for 5 min, supernatant was discarded, and cell pellet was re-suspended in the cold indicator-free medium and centrifuged again. Finally, cells were re-suspended in 0.5 ml of cold indicator-free medium and maintained on ice until analysis. Alternatively, cells were analyzed without washing. Flow cytometry experiments were performed as described in Example 3.

HeLa cell line [3] = assay: Dye efflux flow cytometry MDR assay; assay type: cell-based, human; set-up: key to D-value, Verapamil / D-value, Novobiocin: KS D value, 0 to 1; negative if control brighter than sample; conditions: for D-value, +4° C.: kept on ice without inhibitor
From the text: as §1, §2, §3, §4, §5, §6

[4] = system: CHO K1, A549 and HeLa cells; assay: MTT test of dye toxicity; assay type: cell-based; conditions: 5 μM Fluo-8 AM, 3 h at 37° C.
Method: Three model cell lines (CHO K1, A549 and HeLa cells) were seeded in 96 well plates (5×10^3 cells/well) and 24 h later were treated with the working concentrations of dyes (0.5 μM of Calcein AM, 5 μM of Fluo-8™ AM, 4 μM of Rhod-4™ AM) used in the MDR assay for 3 h at 37° C. Then reagents were removed and a standard MTT test was performed as described elsewhere [Mosmann T., J Immunol Methods 65(1-2):55-63 (1983)]. Viability was calculated as a ratio of OD595 for treated cells to the OD595 of untreated control cells (FIG. 4). […] Additionally, the concentration of Rhod-4™ AM can be decreased further for particularly sensitive cell lines.

HeLa cell line [5] = assay: Dye uptake flow cytometry MDR assay; assay type: cell-based, human; conditions: HeLa, dye uptake
Method: as §7, §8, §9

[6] = CHO K1, dual probes Fluo-8 AM (FL1) + Pheophorbide A (FL3)
[7] = CHO K1, dye uptake, average of three independent experiments (Table 10)
[8] = CHO K1, dye uptake, average of three representative experiments (Table 6)
[9] = CHO K1, dye uptake, representative experiment (Table 8)
[10] = average of three independent experiments (Table 10)
[11] = average of three representative experiments (Table 6)
[12] = representative experiment (Table 8)
[13] = A549, dye efflux, representative experiment (Table 9)
[14] = Fluo-8 AM probe, dye efflux, A549, No Wash
[15] = Fluo-8 AM probe, dye efflux, A549, Wash
[16] = representative experiment (Table 9)

In the case of `CC(=O)OCOC(=O)CN(CC(=O)OCOC(C)=O)c1ccccc1OCCOc1cc(-c2c3ccc(=O)cc-3oc3cc(OCOC(C)=O)ccc23)ccc1N(CC(=O)OCOC(C)=O)CC(=O)OCOC(C)=O` [Fluo-8 ™ AM], the “D-values Post Inhibitor Treatment (compared to uninhibited cells), CsA” value (CHO K1 cell line; [6]) is reported as 0.94, the “D-values Post Inhibitor Treatment (compared to uninhibited cells), FTC” value (CHO K1 cell line; [6]) is reported as 0.56 and the “D-values Post Inhibitor Treatment (compared to uninhibited cells), MK-571” value (CHO K1 cell line; [6]) is reported as 0.98. The “D-values Post Inhibitor Treatment (compared to uninhibited cells), Verapamil” value (CHO K1 cell line; [6]) was 0.9, the “D-value, Cyclosporine A” value (CHO K1 cell line; [7]) was 0.89 and the “D-value, FTC” value (CHO K1 cell line; [7]) was 0.28. For the same compound, the “D-value, MK-571” value (CHO K1 cell line; [7]) was 0.95, the “D-value, Novobiocin” value (CHO K1 cell line; [7]) was 0.68 and the “D-value, Verapamil” value (CHO K1 cell line; [7]) was 0.74. The “D-value, Fumitremorgan C” value (CHO K1 cell line; [8]) was 0.48, the “D-value, Probenecid” value (CHO K1 cell line; [8]) was 0.69 and the “D-value, Verapamil” value (CHO K1 cell line; [8]) was 0.84. For the same compound, the “D-value, Cyclosporine A” value (CHO K1 cell line; [9]) was 0.96, the “D-value, Novobiocin” value (CHO K1 cell line; [9]) was 0.78 and the “D-value, Probenecid” value (CHO K1 cell line; [9]) was 0.89. The “D-value, Verapamil” value (CHO K1 cell line; [9]) was 0.83, the “D-values, Cyclosporin A” value (CHO K1 cell line; No Wash) was 0.97 and the “D-values, Novobiocin” value (CHO K1 cell line; No Wash) was 0.98. For the same compound, the “D-values, Probenecid” value (CHO K1 cell line; No Wash) was 0.9, the “D-values, Verapamil” value (CHO K1 cell line; No Wash) was 0.81 and the “MAF, Cyclosporin A” value (CHO K1 cell line; No Wash) was 93.0. For the same compound, the “MAF, Novobiocin” value (CHO K1 cell line; No Wash) was 93.5, the “MAF, Probenecid” value (CHO K1 cell line; No Wash) was 85.4 and the “MAF, Verapamil” value (CHO K1 cell line; No Wash) was 77.6. For the same compound, the “D-values, Cyclosporin A” value (CHO K1 cell line; Spin) was 0.94, the “D-values, Novobiocin” value (CHO K1 cell line; Spin) was 0.97 and the “D-values, Probenecid” value (CHO K1 cell line; Spin) was 0.9. For the same compound, the “D-values, Verapamil” value (CHO K1 cell line; Spin) was 0.76, the “MAF, Cyclosporin A” value (CHO K1 cell line; Spin) was 91.5 and the “MAF, Novobiocin” value (CHO K1 cell line; Spin) was 92.4. For the same compound, the “MAF, Probenecid” value (CHO K1 cell line; Spin) was 85.0, the “MAF, Verapamil” value (CHO K1 cell line; Spin) was 73.0 and the “D-values, Cyclosporin A” value (CHO K1 cell line; Wash) was 0.94. For the same compound, the “D-values, Novobiocin” value (CHO K1 cell line; Wash) was 0.94, the “D-values, Probenecid” value (CHO K1 cell line; Wash) was 0.87 and the “D-values, Verapamil” value (CHO K1 cell line; Wash) was 0.76. For the same compound, the “MAF, Cyclosporin A” value (CHO K1 cell line; Wash) was 91.6, the “MAF, Novobiocin” value (CHO K1 cell line; Wash) was 91.3 and the “MAF, Probenecid” value (CHO K1 cell line; Wash) was 86.2. The “MAF, Verapamil” value (CHO K1 cell line; Wash) was 73.5, the “D-value, Cyclosporine A” value (A549 cell line [1]; [10]) was 0.43 and the “D-value, FTC” value (A549 cell line [1]; [10]) was 0.31. The “D-value, MK-571” value (A549 cell line [1]; [10]) was 0.61, the “D-value, Novobiocin” value (A549 cell line [1]; [10]) was 0.37 and the “D-value, Verapamil” value (A549 cell line [1]; [10]) was 0.06. For the same compound, the “D-value, Fumitremorgan C” value (A549 cell line [1]; [11]) was 0.23, the “D-value, Probenecid” value (A549 cell line [1]; [11]) was 0.26 and the “D-value, Verapamil” value (A549 cell line [1]; [11]) was 0.07. The “D-value, Cyclosporine A” value (A549 cell line [1]; [12]) was 0.51, the “D-value, Novobiocin” value (A549 cell line [1]; [12]) was 0.44 and the “D-value, Probenecid” value (A549 cell line [1]; [12]) was 0.49. The “D-value, Verapamil” value (A549 cell line [1]; [12]) was 0.09, the “D-value, 4° C.” value (A549 cell line [2]; A549, dye efflux, kept on ice without inhibitor (Table 9)) was 0.80 and the “D-value, Cyclosporine A” value (A549 cell line [2]; [13]) was 0.5. For the same compound, the “D-value, Novobiocin” value (A549 cell line [2]; [13]) was 0.57, the “D-value, Probenecid” value (A549 cell line [2]; [13]) was 0.33 and the “D-value, Verapamil” value (A549 cell line [2]; [13]) was 0.02. The “D-value, Cyclosporin A” value (A549 cell line [2]; [14]) was 0.83, the “D-value, Novobiocin” value (A549 cell line [2]; [14]) was 0.57 and the “D-value, Probenecid” value (A549 cell line [2]; [14]) was 0.33. For the same compound, the “D-value, Verapamil” value (A549 cell line [2]; [14]) was 0.12, the “D-value, +4° C.” value (A549 cell line [2]; [14]) was 0.77 and the “D-value, Cyclosporin A” value (A549 cell line [2]; [15]) was 0.71. The “D-value, Novobiocin” value (A549 cell line [2]; [15]) was 0.46, the “D-value, Probenecid” value (A549 cell line [2]; [15]) was 0.18 and the “D-value, Verapamil” value (A549 cell line [2]; [15]) was 0.11. For the same compound, the “D-value, +4° C.” value (A549 cell line [2]; [15]) was 0.75, the “D-value, Cyclosporin A” value (HeLa cell line [3]; Fluo-8 AM probe, No Wash) was 0.12 and the “D-value, Novobiocin” value (HeLa cell line [3]; Fluo-8 AM probe, No Wash) was 0.13. For the same compound, the “D-value, Probenecid” value (HeLa cell line [3]; Fluo-8 AM probe, No Wash) was 0.13, the “D-value, Verapamil” value (HeLa cell line [3]; Fluo-8 AM probe, No Wash) was 0.076 and the “D-value, +4° C.” value (HeLa cell line [3]; Fluo-8 AM probe, No Wash) was 0.15. The “D-value, Cyclosporin A” value (HeLa cell line [3]; Fluo-8 AM probe, Wash) was 0.14, the “D-value, Novobiocin” value (HeLa cell line [3]; Fluo-8 AM probe, Wash) was 0.16 and the “D-value, Probenecid” value (HeLa cell line [3]; Fluo-8 AM probe, Wash) was 0.14. The “D-value, Verapamil” value (HeLa cell line [3]; Fluo-8 AM probe, Wash) was 0.14, the “D-value, +4° C.” value (HeLa cell line [3]; Fluo-8 AM probe, Wash) was 0.14 and the “D-value, 4° C.” value (HeLa cell line [3]; kept on ice without inhibitor (Table 9)) was 0.83. The “D-value, Cyclosporine A” value (HeLa cell line [3]; [16]) was 0.13, the “D-value, Novobiocin” value (HeLa cell line [3]; [16]) was 0.15 and the “D-value, Probenecid” value (HeLa cell line [3]; [16]) was 0.16. The “D-value, Verapamil” value (HeLa cell line [3]; [16]) was 0.15, the “Toxicity to the cells (MTT viability)” value [4] was “not toxic” and the “D-value, Fumitremorgan C” value (HeLa cell line [5]; [11]) was 0.15. For the same compound, the “D-value, Probenecid” value (HeLa cell line [5]; [11]) was 0, the “D-value, Verapamil” value (HeLa cell line [5]; [11]) was 0.10 and the “D-value, Cyclosporine A” value (HeLa cell line [5]; [12]) was 0.14. For the same compound, the “D-value, Novobiocin” value (HeLa cell line [5]; [12]) was 0.09, the “D-value, Probenecid” value (HeLa cell line [5]; [12]) was 0.15 and the “D-value, Verapamil” value (HeLa cell line [5]; [12]) was 0.04.
